What follows are compounds tested against T1, full-length beta-Catenin (Uniprot ID P35222) (Homo sapiens, UniProt P35222) (assay: Fluorescence polarization IC50 (beta-catenin / 5FAM-TCF4 10-53 competition)). Settings: fluorescence polarization, beta-catenin; read-out: FP EC50.
T1 construct: 10 nM full-length beta-Catenin (Uniprot ID P35222)
T1 sequence (P35222 1-781): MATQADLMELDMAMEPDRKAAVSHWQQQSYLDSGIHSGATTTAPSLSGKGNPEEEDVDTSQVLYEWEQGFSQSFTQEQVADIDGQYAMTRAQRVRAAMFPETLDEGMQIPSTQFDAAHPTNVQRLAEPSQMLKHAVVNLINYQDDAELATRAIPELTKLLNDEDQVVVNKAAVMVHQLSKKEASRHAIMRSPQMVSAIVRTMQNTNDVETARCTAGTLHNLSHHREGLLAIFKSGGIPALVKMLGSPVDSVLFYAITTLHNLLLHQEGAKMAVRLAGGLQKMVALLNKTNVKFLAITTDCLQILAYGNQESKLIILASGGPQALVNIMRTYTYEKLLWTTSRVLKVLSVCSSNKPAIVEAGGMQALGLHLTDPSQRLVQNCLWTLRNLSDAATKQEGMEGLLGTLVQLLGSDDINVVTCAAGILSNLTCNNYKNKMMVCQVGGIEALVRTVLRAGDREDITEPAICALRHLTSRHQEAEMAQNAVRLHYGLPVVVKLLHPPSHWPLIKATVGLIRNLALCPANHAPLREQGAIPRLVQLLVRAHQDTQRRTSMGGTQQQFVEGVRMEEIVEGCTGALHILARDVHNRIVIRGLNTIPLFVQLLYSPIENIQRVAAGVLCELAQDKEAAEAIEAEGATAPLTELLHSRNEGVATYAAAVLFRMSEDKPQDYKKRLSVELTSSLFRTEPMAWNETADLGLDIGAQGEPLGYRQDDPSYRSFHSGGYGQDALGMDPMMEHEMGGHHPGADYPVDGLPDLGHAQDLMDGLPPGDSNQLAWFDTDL
Assay type: binding

How did the IC50 turn out when CC(=O)N1CCC[C@]12CC=CCCCC1(CCCC=CCCCOC(=O)N3CC[C@@](C(=O)N[C@@H](Cc4ccccc4Cl)C(=O)N[C@@H](Cc4csc5ccccc45)C(=O)N[C@@H](CC(C)C)C(N)=O)(C3)NC(=O)[C@H](CC(C)C)NC(=O)[C@H](Cc3ccccc3)NC(=O)[C@H](C)NC(=O)[C@H](C)NC(=O)[C@H](CC(=O)O)NC(=O)[C@H](CC(=O)O)NC1=O)NC(=O)[C@H](CC(C)C)NC(=O)[C@H](CC(=O)O)NC2=O (stereo partly drawn) [I-1419, Ac-PL3-Asp-Leu-B5-Asp-Asp-Ala-Ala-Phe-Leu-PyrS2-2C1F-BztA-Leu-NH2] was run?
The IC50 was 152 nM.

Same assay, conditions: fluorescence polarization; read-out: beta-Catenin FP IC50

CC(=O)N1CCC[C@H]1C(=O)N[C@]1(C)CCCC=CCCCC2(CCCC=CCCCOC(=O)N3CC[C@@](C(=O)N[C@@H](Cc4ccccc4C(F)(F)F)C(=O)N[C@@H](Cc4csc5ccccc45)C(=O)N[C@@H](CCC(N)=O)C(N)=O)(C3)NC(=O)[C@H](CC(C)C)NC(=O)[C@H](Cc3ccccc3)NC(=O)[C@H](C)NC(=O)[C@H](C)NC(=O)[C@H](Cc3cccc(C(=O)O)c3)NC(=O)[C@H](CC(=O)O)NC2=O)NC(=O)[C@H](CC(C)(C)C)NC(=O)[C@H](CC(=O)O)NC1=O (stereo partly drawn) [I-2567, Ac-Pro-R5-Asp-Npg-B5-Asp-3COOHF-Ala-Ala-Phe-Leu-PyrS2-2F3MeF-BztA-Gln-NH2] was tested. Which IC50 did it give?
The IC50 was 522 nM.

With CC(=O)N1CCC[C@]12CC=CCCCC1(CCCC=CCCCOC(=O)N3CC[C@@](C(=O)N[C@@H](Cc4ccsc4)C(=O)N[C@@H](Cc4csc5ccccc45)C(=O)N[C@@H](CCC(N)=O)C(N)=O)(C3)NC(=O)[C@H](CCO)NC(=O)[C@H](Cc3ccccc3)NC(=O)[C@H](C)NC(=O)[C@H](C)NC(=O)[C@H](Cc3c[nH]c4ccccc34)NC(=O)[C@H](CC(=O)O)NC1=O)NC(=O)[C@H](CC(C)(C)C)NC(=O)[C@H](CC(=O)O)NC2=O (stereo partly drawn) [I-1789, Ac-PL3-Asp-Npg-B5-Asp-Trp-Ala-Ala-Phe-Hse-PyrS2-3Thi-BztA-Gln-NH2] as the compound, how does the IC50 read?
Its IC50 is 183 nM.

How did the IC50 turn out when CC(=O)N1CCC[C@]12CC=CCCCC1(CCCC=CCCCOC(=O)N3CC[C@@](C(=O)N[C@@H](Cc4ccccc4Cl)C(=O)N[C@@H](Cc4csc5ccccc45)C(=O)N[C@@H](Cc4ccccc4)C(N)=O)(C3)NC(=O)[C@H](C)NC(=O)[C@H](Cc3ccccc3)NC(=O)[C@H](C)NC(=O)[C@H](C)NC(=O)[C@H](Cc3cccc(C(=O)O)c3)NC(=O)[C@H](CC(=O)O)NC1=O)NC(=O)[C@H](CC(C)(C)C)NC(=O)[C@H](CC(=O)O)NC2=O (stereo partly drawn) [I-2025, Ac-PL3-Asp-Npg-B5-Asp-3COOHF-Ala-Ala-Phe-Ala-PyrS2-2C1F-BztA-Phe-NH2] was run?
Its IC50 is 109 nM.

Which IC50 does the source give for CC(=O)N1CCC[C@]12CC=CCCCC1(CCCC=CCCCOC(=O)N3CC[C@@](C(=O)N[C@@H](Cc4ccsc4)C(=O)N[C@@H](Cc4csc5ccccc45)C(=O)N[C@@H](CCC(N)=O)C(N)=O)(C3)NC(=O)[C@H](CC(C)C)NC(=O)[C@H](Cc3ccccc3)NC(=O)[C@H](C)NC(=O)[C@H](C)NC(=O)[C@H](CCN(CC(=O)O)C(=O)CCN(C)C)NC(=O)[C@H](CC(=O)O)NC1=O)NC(=O)[C@H](CC(C)(C)C)NC(=O)[C@H](CC(=O)O)NC2=O (stereo partly drawn) [I-2244, Ac-PL3-Asp-Npg-B5-Asp-[Me2NPr]GAbu-Ala-Ala-Phe-Leu-PyrS2-3Thi-BztA-Gln-NH2] here?
The IC50 was 16 nM.

How did the IC50 turn out when CC(=O)N1CCC[C@H]1C(=O)N[C@]1(C)CCCC=CCCCC2(CCCC=CCCCOC(=O)N3CC[C@@](C(=O)N[C@@H](Cc4ccccc4C(F)(F)F)C(=O)N[C@@H](Cc4csc5ccccc45)C(=O)N[C@@H](CCC(N)=O)C(N)=O)(C3)NC(=O)[C@H](CC(C)C)NC(=O)[C@H](Cc3ccccc3)NC(=O)[C@H](C)NC(=O)[C@H](C)NC(=O)[C@H](Cc3cccc(C(=O)O)c3)NC(=O)[C@H](CC(=O)O)NC2=O)NC(=O)[C@H](CC(C)(C)C)NC(=O)[C@H](CC(=O)O)NC(=O)[C@H](CCC(=O)O)NC1=O (stereo partly drawn) [I-2575, Ac-Pro-R5-Glu-Asp-Npg-B5-Asp-3COOHF-Ala-Ala-Phe-Leu-PyrS2-2F3MeF-BztA-Gln-NH2] was run?
Its IC50 is 8160 nM.

For CC(=O)N1CCC[C@]12CC=CCCCC1(CCCC=CCCCOC(=O)N3CC[C@@](C(=O)N[C@@H](Cc4ccccc4Cl)C(=O)N[C@@H](Cc4csc5ccccc45)C(=O)N[C@@H](CC(C)C)C(N)=O)(C3)NC(=O)[C@H](CC(C)C)NC(=O)[C@H](Cc3ccccc3)NC(=O)[C@H](C)NC(=O)[C@H](C)NC(=O)[C@H](CC(=O)O)NC(=O)[C@H](CC(=O)O)NC1=O)NC(=O)[C@H](CC(C)C)NC(=O)[C@H](CC(=O)O)NC2=O (stereo partly drawn) [I-1419, Ac-PL3-Asp-Leu-B5-Asp-Asp-Ala-Ala-Phe-Leu-PyrS2-2C1F-BztA-Leu-NH2], which IC50 is on record?
The IC50 was 152 nM.

Which IC50 does the source give for CC(=O)N1CCC[C@]12CC=CCCCC1(CCCC=CCCCOC(=O)N3CC[C@@](C(=O)N[C@@H](Cc4ccccc4Cl)C(=O)N[C@@H](Cc4csc5ccccc45)C(=O)N[C@@H](CN4CCOCC4)C(N)=O)(C3)NC(=O)[C@H](CC(N)=O)NC(=O)[C@H](Cc3ccccc3)NC(=O)[C@H](C)NC(=O)[C@H](C)NC(=O)[C@H](CC(=O)O)NC(=O)[C@H](CC(=O)O)NC1=O)NC(=O)[C@H](CC(C)(C)C)NC(=O)[C@H](CC(=O)O)NC2=O (stereo partly drawn) [I-1133, Ac-PL3-Asp-Npg-B5-Asp-Asp-Ala-Ala-Phe-Asn-PyrS2-2C1F-BztA-MorphAla-NH2] here?
Its IC50 is 5 nM.

For CC(=O)N1CCC[C@]12CC=CCCCC1(CCCC=CCOC(=O)N3CC[C@@](C(=O)N[C@@H](Cc4ccsc4)C(=O)N[C@@H](Cc4csc5ccccc45)C(=O)N[C@@H](CCC(N)=O)C(N)=O)(C3)NC(=O)[C@H](CC(N)=O)NC(=O)[C@H](Cc3ccccc3)NC(=O)[C@H](C)NC(=O)[C@H](C)NC(=O)[C@H](CC(=O)O)NC(=O)[C@H](CC(=O)O)NC1=O)NC(=O)[C@H](CC(C)(C)C)NC(=O)[C@H](CC(=O)O)NC2=O (stereo partly drawn) [I-1816, Ac-PL3-Asp-Npg-B5-Asp-Asp-Ala-Ala-Phe-Asn-PyrS-3Thi-BztA-Gln-NH2], which IC50 is on record?
The IC50 was 235 nM.

Which IC50 does the source give for CC(=O)N1CCC[C@]12CC=CCCCC1(CCCC=CCCCOC(=O)N3CC[C@@](C(=O)N[C@@H](Cc4ccsc4)C(=O)N[C@@H](Cc4csc5ccccc45)C(=O)N[C@@H](CCC(N)=O)C(N)=O)(C3)NC(=O)[C@H](CC(C)C)NC(=O)[C@H](Cc3ccccc3)NC(=O)[C@H](C)NC(=O)[C@H](C)NC(=O)[C@H](Cc3c(F)c(F)c(F)c(F)c3F)NC(=O)[C@H](CC(=O)O)NC1=O)NC(=O)[C@H](CC(C)(C)C)NC(=O)[C@H](CC(=O)O)NC2=O (stereo partly drawn) [I-1792, Ac-PL3-Asp-Npg-B5-Asp-Pff-Ala-Ala-Phe-Leu-PyrS2-3Thi-BztA-Gln-NH2] here?
Its IC50 is 935 nM.

For CC(=O)N1CCC[C@]12CC=CCCCC1(CCCC=CCCCOC(=O)N3CC[C@@](C(=O)N[C@@H](Cc4ccccc4C(F)(F)F)C(=O)N[C@@H](Cc4csc5ccccc45)C(=O)N[C@H](C)C(N)=O)(C3)NC(=O)[C@H](CC(C)C)NC(=O)[C@H](Cc3ccccc3)NC(=O)[C@@H](C)NC(=O)[C@H](C)NC(=O)[C@H](Cc3cccc(C(=O)O)c3)NC(=O)[C@H](CC(=O)O)NC1=O)NC(=O)[C@H](CC(C)(C)C)NC(=O)[C@H](CC(=O)O)NC2=O (stereo partly drawn) [I-2101, Ac-PL3-Asp-Npg-B5-Asp-3COOHF-Ala-dAla-Phe-Leu-PyrS2-2F3MeF-BztA-dAla-NH2], which IC50 is on record?
The IC50 was 424 nM.

For CC(=O)N1CCC[C@]12CC=CCCCC1(CCCC=CCOC(=O)N(C)CC[C@@](C)(C(=O)N[C@@H](Cc3ccsc3)C(=O)N[C@@H](Cc3csc4ccccc34)C(=O)N[C@@H](CCC(N)=O)C(N)=O)NC(=O)[C@H](CC(N)=O)NC(=O)[C@H](Cc3ccccc3)NC(=O)[C@H](C)NC(=O)[C@H](C)NC(=O)[C@H]([C@@H](C)O)NC(=O)[C@H](CC(N)=O)NC1=O)NC(=O)[C@H](CC(C)(C)C)NC(=O)[C@H](CC(=O)O)NC2=O (stereo partly drawn) [I-2213, Ac-PL3-Asp-Npg-B5-Asn-Thr-Ala-Ala-Phe-Asn-SdN-3Thi-BztA-Gln-NH2], which IC50 is on record?
The IC50 was 5250 nM.

How did the IC50 turn out when CC(=O)N1CCC[C@]12CC=CCCCC1(CCCC=CCCCOC(=O)N3CC[C@@](C(=O)N[C@@H](Cc4ccsc4)C(=O)N[C@@H](Cc4csc5ccccc45)C(=O)N[C@@H](CCC(N)=O)C(N)=O)(C3)NC(=O)[C@H](CC(C)C)NC(=O)[C@H](Cc3ccccc3)NC(=O)[C@H](C)NC(=O)[C@H](C)NC(=O)[C@H](CC(C)C)NC(=O)[C@H](CC(=O)O)NC1=O)NC(=O)[C@H](CC(C)(C)C)NC(=O)[C@H](CC(=O)O)NC2=O (stereo partly drawn) [I-1444, Ac-PL3-Asp-Npg-B5-Asp-Leu-Ala-Ala-Phe-Leu-PyrS2-3Thi-BztA-Gln-NH2] was run?
The IC50 was 6560 nM.

For CC(=O)N1CCC[C@]12CC=CCCCC1(CCCC=CCCCOC(=O)N3CC[C@@](C(=O)N[C@@H](Cc4ccsc4)C(=O)N[C@@H](Cc4csc5ccccc45)C(=O)N[C@H](C(N)=O)C(C)C)(C3)NC(=O)[C@H](CC(N)=O)NC(=O)[C@H](Cc3ccccc3)NC(=O)[C@H](C)NC(=O)[C@H](C)NC(=O)[C@H]([C@@H](C)O)NC(=O)[C@H](CC(N)=O)NC1=O)NC(=O)[C@H](CC(C)(C)C)NC(=O)[C@H](CC(=O)O)NC2=O (stereo partly drawn) [I-1878, Ac-PL3-Asp-Npg-B5-Asn-Thr-Ala-Ala-Phe-Asn-PyrS2-3Thi-BztA-Val-NH2], which IC50 is on record?
The IC50 was 458 nM.

For CC(=O)N1CCC[C@]12CC=CCCCC1(CCCC=CCCCOC(=O)N3CC[C@@](C(=O)N[C@@H](Cc4ccsc4)C(=O)N[C@@H](Cc4csc5ccccc45)C(=O)N[C@@H](CCC(N)=O)C(N)=O)(C3)NC(=O)[C@H](CC(C)C)NC(=O)[C@H](Cc3ccccc3)NC(=O)[C@H](C)NC(=O)[C@H](C)NC(=O)[C@H](CN3CCC[C@H](C(=O)O)C3)NC(=O)[C@H](CC(=O)O)NC1=O)NC(=O)[C@H](CC(C)(C)C)NC(=O)[C@H](CC(=O)O)NC2=O (stereo partly drawn) [I-1921, Ac-PL3-Asp-Npg-B5-Asp-S3COOPipA-Ala-Ala-Phe-Leu-PyrS2-3Thi-BztA-Gln-NH2], which IC50 is on record?
Its IC50 is 22 nM.
